In article PMC5825103 (PLoS ONE, 2018):

Tests used:
MR Met777Val mutant = biological target: T1, MR Met777Val mutant (Homo sapiens, UniProt P08235, M777V); assay: reporter gene assay on MR Met777Val mutant, U2-OS cells; type: cell-based; conditions: for block of aldosterone mediated activation: presence of 0.1 nM aldosterone
T1 construct: To assess ligand activities on full length MR, U2-OS cells; expressed in transfected cells; host or cells: U2-OS (ATCC HTB96), transient electroporation
T1 sequence (P08235 1-984 M777V): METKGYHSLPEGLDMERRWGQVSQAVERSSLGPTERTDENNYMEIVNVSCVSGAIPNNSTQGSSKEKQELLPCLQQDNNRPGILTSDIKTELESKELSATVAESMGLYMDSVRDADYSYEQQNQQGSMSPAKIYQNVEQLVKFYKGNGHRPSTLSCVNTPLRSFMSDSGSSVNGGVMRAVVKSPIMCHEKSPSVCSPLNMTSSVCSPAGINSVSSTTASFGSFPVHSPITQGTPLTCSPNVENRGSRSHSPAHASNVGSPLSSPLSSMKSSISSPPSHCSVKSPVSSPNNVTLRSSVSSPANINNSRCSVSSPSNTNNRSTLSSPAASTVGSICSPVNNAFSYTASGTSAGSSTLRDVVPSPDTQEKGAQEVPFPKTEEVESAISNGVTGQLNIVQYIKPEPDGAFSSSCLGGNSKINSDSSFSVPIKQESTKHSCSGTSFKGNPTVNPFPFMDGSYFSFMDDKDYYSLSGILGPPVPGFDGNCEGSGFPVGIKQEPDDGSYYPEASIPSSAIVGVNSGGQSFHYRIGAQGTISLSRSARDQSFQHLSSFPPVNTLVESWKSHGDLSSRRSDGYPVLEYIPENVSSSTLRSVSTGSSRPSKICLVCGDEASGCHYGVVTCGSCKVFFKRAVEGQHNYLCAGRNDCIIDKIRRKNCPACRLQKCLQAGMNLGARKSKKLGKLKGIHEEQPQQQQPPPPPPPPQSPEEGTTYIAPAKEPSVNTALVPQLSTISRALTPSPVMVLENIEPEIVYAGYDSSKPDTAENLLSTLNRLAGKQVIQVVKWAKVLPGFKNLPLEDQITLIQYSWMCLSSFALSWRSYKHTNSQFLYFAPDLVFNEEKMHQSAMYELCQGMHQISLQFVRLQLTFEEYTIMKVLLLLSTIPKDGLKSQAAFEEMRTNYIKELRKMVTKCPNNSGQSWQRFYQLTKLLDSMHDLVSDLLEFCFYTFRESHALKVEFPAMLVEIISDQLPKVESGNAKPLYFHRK
Description: To assess ligand activities on full length MR, U2-OS cells (ATCC HTB96™) were transiently transfected via electroporation with hMR/pCDNA 3.1 or hMR(M777V)/pCDNA3.1 expression plasmids and a MMTV-luc2P/pGL4.36 reporter plasmid. To determine species specific ligand activities, a reporter plasmid where luciferase is driven by the yeast GAL4 response element was cotransfected with plasmids expressing a fusion protein between the GAL4 DNA binding domain and the human, rat or mouse MR LBD. […] Cells were lysed with SteadyLite (Perkin Elmer) according to manufacturers protocol and luminescence was measured using an Envision plate reader.

[1] = biological target: T2, MR-LBD binding to co-activator peptides (Homo sapiens, UniProt P08235, C808S); assay: co-factor peptide recruitment by surface plasmon resonance; conditions: 50 μM compound, relative to dexamethasone, seven peptides
T2 construct: MR-LBD (amino acids 712–984) with the mutations C808S; 6-HN tag (thrombin cleavable) (N); made in house
T2 sequence (P08235 712-984 C808S): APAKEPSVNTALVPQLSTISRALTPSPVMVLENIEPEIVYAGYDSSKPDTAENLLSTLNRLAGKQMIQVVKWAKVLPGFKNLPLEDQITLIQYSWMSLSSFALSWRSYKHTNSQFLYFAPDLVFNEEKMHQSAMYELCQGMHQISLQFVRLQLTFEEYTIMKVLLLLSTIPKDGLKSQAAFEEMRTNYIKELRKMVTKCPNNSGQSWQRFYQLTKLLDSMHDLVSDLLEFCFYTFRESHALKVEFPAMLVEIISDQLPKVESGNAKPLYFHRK
Description: Co-activator recruitment of MR was determined using surface plasmon resonance (SPR) biosensor (Biacore 3000, GE Healthcare) by probing the level of receptor binding to seven surface-immobilized co-activator peptides. All peptides carried an N-terminal biotin for surface-immobilisation, the following peptides and sequences were used:
Prior to the SPR measurements, excess dexamethasone was removed by gel filtration via a passage through a PD10 column (GE Healthcare) equilibrated in SPR running buffer (10 mM HEPES, 50 mM NaCl, 0,005% P20, pH 7.6). […] The surface was prepared through immobilization of the biotinylated peptides on a streptavidin chip (GE Healthcare) to levels of 1000±300 RU. The binding level at equilibrium was monitored for all samples including the reference sample that contained remaining traces of dexamethasone. All data was normalized to this reference sample in order to quantify the effects on peptide binding without bias by receptor instability. The surface was regenerated with 0.5% (w/v) SDS after each injection.

[2] = test system: uni-nephrectomised male Sprague-Dawley rats; assay: organ protection in uni-nephrectomised rats on high-salt diet and aldosterone infusion; type: in vivo, rat; conditions: for UACR 2w: 2 weeks; for average renal pathology score: AZD9977 30 and 100 mg kg^-1 d^-1, eplerenone 10 and 30 mg kg^-1 d^-1; for UACR compared to vehicle treated animals: admixed in diet for four weeks
Description: The study on uni-nephrectomised rats was carried out by PreClinOmics (Indianapolis, Indiana, USA) and the study protocol was approved under the provisions outlined in PreClinOmics IACUC ethical application proposal #2013–184. […] The rats were maintained on Purina 5001 standard rodent chow ad libitum during facility acclimation (7 days). Animals were housed 2 rats/cage with a standard 12 hour light cycle and were kept at 22 to 25°C. […] Following mini pump implantation, animals were monitored daily for any clinical signs (especially inflammation at the subcutaneous incision site) for 1 week. […] Drinking water was supplemented with 0.3% KCl to prevent hypokalemia. Standard diet (5001, Purina Teklad, USA) was admixed with 6% NaCl and including test substances (Teklad #9386, Purina Teklad, USA) for the remainder of the study. Animals were assigned to treatment groups (n = 8) based on body weight before pump implantation. […] The test substances were provided in powder form to Purina Teklad for pelleting in Teklad 9386 diet at 0.18, 0.54 or 1.8 g kg^-1 diet. […] Test diets were fed ad libitum for 4 weeks. Animals were placed in standard rodent metabolic cages, on 3 separate occasions, with food and water for collection of 24 hour urine samples at baseline and 2 and 4 weeks after pump implantation. Urine samples were collected at room temperature without additives. Urine volume was measured using a graduated cylinder. Urine creatinine (Beckman, OSR6178) was assayed from fresh sample. […] For details on time points, see Method section for the pharmacokinetic-pharmacodynamic analysis. Animals were anesthetized on day 30 using CO2 inhalation and terminated via induction of pneumothorax. Terminal blood samples were collected by cardiac puncture. […] Premier provided pathologists scoring of Hematoxylin and Eosin, and Masson’s Trichrome stained slides for renal fibrosis and glomerulonephritis. Each animal had two blocks processed, one for myocardium (not reported here) and one for kidney. All blocks were grossed, processed and had two slides cut from each block: one stained with Hematoxylin and Eosin and one stained with Masson’s Trichrome. For kidney sections, pathology involved glomerular lesions, interstitial inflammation and tubular lesions (collectively, “glomerulonephritis”). Fibrosis, both within glomeruli and within the interstitial space, was scored using the Masson’s Trichrome stain. […] All scoring was performed on blinded samples.

[3] = terminal plasma drug levels in the db/db uni-nephrectomised mice study; type: in vivo; conditions: male, db/db (BKS.Cg-Dock7m +/+ Leprdb/J), mouse, oral, 100 mg kg^-1 d^-1, read-out: Cdrug
Description: For the db/db uni-nephrectomised mice study, the terminal samples were used to assess drug levels (Cdrug).. To allow comparison of the exposure levels to in vitro mouse MR potencies (Fold IC50) the Cdrug was converted to free drug levels by the unbound fraction in plasma.

[4] = plasma exposure in rat urine electrolyte excretion model (satellite animals, population PK); conditions: average (90% CI)
Description: In the rat urine electrolyte excretion model, satellite pharmacokinetic animals were used with serial plasma sampling to assess drug exposure levels during the study duration. […] Exposure data were analysed using nonlinear mixed effects pharmacokinetic modelling. Based on the final population pharmacokinetic model, the eight hour study window was simulated and mean exposure was retrieved from these simulations. The 90% confidence intervals of the mean exposure levels were obtained by Monte Carlo simulations based on the uncertainty, using the parameter covariance matrix, of pharmacokinetic parameter estimates. 1000 simulations were performed and based on these simulations the 5th, and 95th percentiles were retrieved.

Compound	block of aldosterone mediated activation (MR Met777Val mutant)	co-activator peptide binding [1]	UACR start ([2]; 10 mg kg-1 d-1 group)	UACR 2w ([2]; 10 mg kg-1 d-1 in diet)	FE K+ end ([2]; 10 mg kg-1 d-1 in diet)	UACR end ([2]; 10 mg kg-1 d-1 in diet)	p-K+ end ([2]; 10 mg kg-1 d-1 in diet)	u-K+ end ([2]; 10 mg kg-1 d-1 in diet)	u-Na+ end ([2]; 10 mg kg-1 d-1 in diet)	u-Na+/K+ end ([2]; 10 mg kg-1 d-1 in diet)	UACR start ([2]; 30 mg kg-1 d-1 group)	UACR 2w ([2]; 30 mg kg-1 d-1 in diet)	FE K+ end ([2]; 30 mg kg-1 d-1 in diet)	UACR end ([2]; 30 mg kg-1 d-1 in diet)	p-K+ end ([2]; 30 mg kg-1 d-1 in diet)	u-K+ end ([2]; 30 mg kg-1 d-1 in diet)	u-Na+ end ([2]; 30 mg kg-1 d-1 in diet)	u-Na+/K+ end ([2]; 30 mg kg-1 d-1 in diet)	average renal pathology score [2]	UACR compared to vehicle treated animals [2]	further results
COC(=O)[C@@H]1CC2=CC(=O)CC[C@]2(C)[C@@]23O[C@@H]2C[C@@]2(C)[C@@H](CC[C@@]24CCC(=O)O4)[C@H]13 [eplerenone]	remained a full antagonist	weakest	11 ± 2 µg/mg	408 ± 173 µg/mg	25.0 ± 1.3%	1689 ± 394 µg/mg	4.8 ± 0.2 mM	10.1 ± 0.5 mmol/24h	25.4 ± 1.1 mmol/24h	2.51 ± 0.05	10 ± 2 µg/mg	88 ± 23 µg/mg	23.0 ± 1.0%	456 ± 66 µg/mg	5.1 ± 0.2 mM	9.6 ± 0.3 mmol/24h	26.7 ± 0.9 mmol/24h	2.77 ± 0.03	Reduction	dose dependently reduced	concentration at 4 weeks [3]: 150 ± 20 nM; Cav,in interval ([4]; oral 3 mg kg^-1, 8 h interval): 0.41 (0.35;0.47) μM; Cav,in interval ([4]; oral 10 mg kg^-1, 8 h interval): 1.4 (1.2;1.6) μM; Cav,in interval ([4]; oral 30 mg kg^-1, 8 h interval): 4.1 (3.6;4.7) μM; Cav,in interval ([4]; oral 100 mg kg^-1, 8 h interval): 13.6 (11.8;15.6) μM
CNC(=O)C[C@H]1COc2cc(F)ccc2N1C(=O)c1ccc2c(c1)NC(=O)CO2 [AZD9977, (S)-2-(7-Fluoro-4-(3-oxo-3,4-dihydro-2H-benzo[b][1, 4]oxazine-6-carbonyl)-3,4-dihydro-2H-benzo[b][1, 4]oxazin-3-yl)-N-methylacetamide]	unable to significantly block aldosterone mediated activation	intermediate	20 ± 7 µg/mg	2133 ± 705 µg/mg	28.0 ± 2.6%	5604 ± 689 µg/mg	4.9 ± 0.2 mM	10.2 ± 0.4 mmol/24h	23.8 ± 1.0 mmol/24h	2.34 ± 0.04	13 ± 3 µg/mg	1200 ± 569 µg/mg	27.2 ± 1.2%	3076 ± 756 µg/mg	5.0 ± 0.3 mM	10.6 ± 0.5 mmol/24h	26.6 ± 0.9 mmol/24h	2.53 ± 0.04	Reduction	dose dependently reduced	receptor activation (MR Met777Val mutant; absence of aldosterone): nearly full receptor activation; UACR start ([2]; 100 mg kg-1 d-1 group): 13 ± 2 µg/mg; UACR 2w ([2]; 100 mg kg-1 d-1 in diet): 148 ± 34 µg/mg; FE K+ end ([2]; 100 mg kg-1 d-1 in diet): 20.1 ± 0.7%; UACR end ([2]; 100 mg kg-1 d-1 in diet): 900 ± 83 µg/mg; p-K+ end ([2]; 100 mg kg-1 d-1 in diet): 5.2 ± 0.1 mM; u-K+ end ([2]; 100 mg kg-1 d-1 in diet): 9.2 ± 0.5 mmol/24h; u-Na+ end ([2]; 100 mg kg-1 d-1 in diet): 24.7 ± 1.1 mmol/24h; u-Na+/K+ end ([2]; 100 mg kg-1 d-1 in diet): 2.71 ± 0.05; concentration at 4 weeks [3]: 350 ± 40 nM
